From the NIST ThermoML archive (doi:10.1021/je049572f)

Test: xn = mol fraction of the nth substance listed
Settings: 101.33 kPa, Liquid

O=S1(=O)CCCC1 [sulfolane] + CCc1ccccc1
Settings	mass density [kg/m3]	viscosity [mPa·s]
303.15 K, x2 = 0	1260.8	10.07
303.15 K, x2 = 0.1118	1209.27	6.224
303.15 K, x2 = 0.2205	1160.4	4.155
303.15 K, x2 = 0.3267	1114.66	2.942
303.15 K, x2 = 0.4301	1071.65	2.185
303.15 K, x2 = 0.5309	1031.19	–
303.15 K, x2 = 0.6293	993.33	1.324
303.15 K, x2 = 0.7254	957.17	1.057
303.15 K, x2 = 0.8194	923.09	0.861
303.15 K, x2 = 0.9106	890.45	0.716
313.15 K, x2 = 0	1251.9	7.808
313.15 K, x2 = 0.1118	1200.44	4.943
313.15 K, x2 = 0.2205	1151.53	3.385
313.15 K, x2 = 0.3267	1105.77	2.452
313.15 K, x2 = 0.4301	1062.77	1.835
313.15 K, x2 = 0.5309	1022.32	–
313.15 K, x2 = 0.6293	984.45	1.135
313.15 K, x2 = 0.7254	948.31	0.924
313.15 K, x2 = 0.8194	914.23	0.757
313.15 K, x2 = 0.9106	881.6	0.632
323.15 K, x2 = 0	1243.36	6.194
323.15 K, x2 = 0.1118	1191.64	4.007
323.15 K, x2 = 0.2205	1142.7	2.801
323.15 K, x2 = 0.3267	1096.92	2.048
323.15 K, x2 = 0.4301	1053.9	1.561
323.15 K, x2 = 0.5309	1013.47	1.136
323.15 K, x2 = 0.6293	975.58	0.993
323.15 K, x2 = 0.7254	939.43	0.813
323.15 K, x2 = 0.8194	905.36	0.66
323.15 K, x2 = 0.9106	872.72	0.564
333.15 K, x2 = 0	1234.62	5.009
333.15 K, x2 = 0.1118	1182.85	3.33
333.15 K, x2 = 0.2205	1133.86	2.35
333.15 K, x2 = 0.3267	1088.06	1.763
333.15 K, x2 = 0.4301	1045.02	1.347
333.15 K, x2 = 0.5309	1004.57	–
333.15 K, x2 = 0.6293	966.66	0.876
333.15 K, x2 = 0.7254	930.5	0.724
333.15 K, x2 = 0.8194	896.41	0.597
333.15 K, x2 = 0.9106	863.76	0.505
343.15 K, x2 = 0	1225.92	4.126
343.15 K, x2 = 0.1118	1173.93	2.796
343.15 K, x2 = 0.2205	1124.89	2.005
343.15 K, x2 = 0.3267	1079.06	1.541
343.15 K, x2 = 0.4301	1036.02	1.177
343.15 K, x2 = 0.5309	995.54	0.882
343.15 K, x2 = 0.6293	957.62	0.772
343.15 K, x2 = 0.7254	921.43	0.646
343.15 K, x2 = 0.8194	887.32	0.536
343.15 K, x2 = 0.9106	854.67	0.459
353.15 K, x2 = 0	1216.8	3.44
353.15 K, x2 = 0.1118	1165.14	2.371
353.15 K, x2 = 0.2205	1116.08	1.736
353.15 K, x2 = 0.3267	1070.18	1.319
353.15 K, x2 = 0.4301	1027.1	1.039
353.15 K, x2 = 0.5309	986.58	0.785
353.15 K, x2 = 0.6293	948.63	0.692
353.15 K, x2 = 0.7254	912.4	0.583
353.15 K, x2 = 0.8194	878.28	0.484
353.15 K, x2 = 0.9106	845.58	0.417
